Read-outs that look alike come from different tables or passages of the source. Numbered stars: 1 amine (or outer) side, 2 acyl side, 3 side chain; on linkers, the order of the positions; unused ones are H or OH. Bridge positions count the residues as written; N and C are the ends. Square brackets hold non-standard residues; d marks the D form. Peptide text beside a SMILES is read from it. * marks the point of attachment. C20 diacid = O=C(O)CCCCCCCCCCCCCCCCCCC(=O)*; γGlu = O=C(O)[C@H](CCC(=O)[*:2])N[*:1]; NMeI = CC[C@H](C)[C@H](NC)C(=O)O; Sar = CNCC(=O)O
Key:
[1] = molecular target: T1, human calcitonin receptor (hCTR2) (Homo sapiens, UniProt P30988); test: hCTR2 assay: induction of cAMP (AlphaScreen cAMP Assay kit) in COS7 cells expressing hCTR2; format: cell-based
T1 construct: expressed in transfected cells
T1 sequence (P30988 25-474): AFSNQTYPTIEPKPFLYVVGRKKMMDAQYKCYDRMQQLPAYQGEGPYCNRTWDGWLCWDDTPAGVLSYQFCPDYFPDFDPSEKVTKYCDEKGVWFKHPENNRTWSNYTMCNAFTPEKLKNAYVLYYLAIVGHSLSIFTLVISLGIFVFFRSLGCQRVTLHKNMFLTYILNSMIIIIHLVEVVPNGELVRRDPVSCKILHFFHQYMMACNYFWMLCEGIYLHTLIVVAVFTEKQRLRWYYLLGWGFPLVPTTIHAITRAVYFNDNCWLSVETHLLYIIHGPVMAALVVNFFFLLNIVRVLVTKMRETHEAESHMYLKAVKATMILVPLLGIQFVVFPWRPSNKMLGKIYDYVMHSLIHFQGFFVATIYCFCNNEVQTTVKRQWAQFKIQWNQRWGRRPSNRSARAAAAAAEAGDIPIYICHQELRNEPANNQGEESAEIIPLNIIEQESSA
Summary of the method: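 cAMP induction was measured by AlphaScreen in COS7 cells stably expressing hCTR2 without RAMPs, after 15 min at 37° C with increasing peptide concentrations, 100 µM IBMX and 0.1% casein (Tyrode, pH 7.4). A 4-parameter logistic fit gave EC50 and % efficacy versus pramlintide.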

[2] = Solubility assessment (turbidity absorbance at 325 nm); format: physicochemical; details: stock 2 mg/ml diluted 1:1, ambient temperature (typically 25°C), n=1; for Solubility, Acetate buffer pH 4: 100 mM acetate buffer pH 4.0; for Solubility, Acetate buffer pH 5: 100 mM acetate buffer pH 5.0; for Solubility, Histidine buffer pH 6: 100 mM histidine buffer pH 6.0; for Solubility, Histidine buffer pH 7: 100 mM histidine buffer pH 7.0; for Solubility, Phosphate buffer pH 6: 100 mM phosphate buffer pH 6.0; for Solubility, Phosphate buffer pH 7: 100 mM phosphate buffer pH 7.0; for Solubility, Phosphate buffer pH 7.5: 100 mM phosphate buffer pH7.5
Summary of the method: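 Turbidimetric screen across pH 4.0–7.5 in 100 mM acetate, histidine and phosphate buffers. A 2 mg/ml peptide stock (pH 2.5) was diluted 1:1 into each, then A325 measured at ambient temperature; values ≤ 0.02 AU denoted solubility of 1 mg/ml or more.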

[3] = cAMP induction in COS7 cells expressing hCTR2, average of a minimum of 3 determinations, read-out: hCTR2 EC50

| SMILES | EC50 [1, 3] [nM] | Solubility, Acetate buffer pH 4 [2] | Solubility, Acetate buffer pH 5 [2] | Solubility, Histidine buffer pH 6 [2] | Solubility, Histidine buffer pH 7 [2] | Solubility, Phosphate buffer pH 6 [2] | Solubility, Phosphate buffer pH 7 [2] | Solubility, Phosphate buffer pH 7.5 [2] | EC50 [1] [nM] |
| --- | --- | --- | --- | --- | --- | --- | --- | --- | --- |
| CC[C@H](C)[C@@H](C(=O)N[C@@H](CC(C)C)C(=O)N[C@@H](CO)C(=O)N[C@@H](CO)C(=O)N[C@H](C(=O)N[C@@H](CC(N)=O)C(=O)N[C@H](C(=O)NCC(=O)N[C@@H](CO)C(=O)N[C@@H](CC(N)=O)C(=O)N[C@H](C(=O)N1CCC[C@H]1C(N)=O)[C@@H](C)O)C(C)C)[C@@H](C)O)N(C)C(=O)[C@H](C)NC(=O)CN(C)C(=O)[C@H](CC(N)=O)NC(=O)[C@H](CC(N)=O)NC(=O)[C@H](CO)NC(=O)[C@H](CO)NC(=O)[C@H](Cc1c[nH]cn1)NC(=O)[C@H](Cc1c[nH]cn1)NC(=O)[C@H](CC(C)C)NC(=O)[C@H](Cc1ccccc1)NC(=O)[C@H](CCC(=O)O)NC(=O)[C@H](C)NC(=O)[C@H](CC(C)C)NC(=O)[C@H](CCCNC(=N)N)NC(=O)[C@H](CCC(N)=O)NC(=O)[C@@H](NC(=O)[C@H](C)NC(=O)[C@@H]1CSSC[C@H](NC(=O)[C@H](CCCNC(=N)N)NC(=O)CC[C@H](NC(=O)CCCCCCCCCCCCCCCCCCC(=O)O)C(=O)O)C(=O)N[C@@H](CC(N)=O)C(=O)N[C@@H]([C@@H](C)O)C(=O)N[C@@H](C)C(=O)N[C@@H]([C@@H](C)O)C(=O)N1)[C@@H](C)O [Compound 50, [19CD]-isoGlu-RC()NTATC()ATQRLAEFLHHSSNN-Gly(Me)-A-Ile(Me)-LSSTNVGSNTP-NH2] ({C20 diacid-γGlu}-RCNTATCATQRLAEFLHHSSNN[Sar]A[NMeI]LSSTNVGSNTP-NH2; disulfide 2-7) | 0.14 | SS (SS indicates solubility ≥ 1mg/ml) | SS (SS indicates solubility ≥ 1mg/ml) | SS (SS indicates solubility ≥ 1mg/ml) | SS (SS indicates solubility ≥ 1mg/ml) | SS (SS indicates solubility ≥ 1mg/ml) | SS (SS indicates solubility ≥ 1mg/ml) | SS (SS indicates solubility ≥ 1mg/ml) |  |
| CC[C@H](C)[C@@H](C(=O)N[C@@H](CC(C)C)C(=O)N[C@@H](CO)C(=O)N[C@@H](CO)C(=O)N[C@H](C(=O)N[C@@H](CC(=O)O)C(=O)N[C@H](C(=O)NCC(=O)N[C@@H](CO)C(=O)N[C@@H](CCC(=O)O)C(=O)N[C@H](C(=O)N1CCC[C@H]1C(N)=O)[C@@H](C)O)C(C)C)[C@@H](C)O)N(C)C(=O)[C@H](C)NC(=O)CN(C)C(=O)[C@H](Cc1ccccc1)NC(=O)[C@H](CO)NC(=O)[C@H](CO)NC(=O)[C@H](CO)NC(=O)[C@H](CO)NC(=O)[C@H](CCCNC(=N)N)NC(=O)[C@H](Cc1c[nH]cn1)NC(=O)[C@H](CC(C)C)NC(=O)[C@H](Cc1ccccc1)NC(=O)[C@H](CCC(=O)O)NC(=O)[C@H](C)NC(=O)[C@H](CC(C)C)NC(=O)[C@H](CCCNC(=N)N)NC(=O)[C@H](CCC(N)=O)NC(=O)[C@@H](NC(=O)[C@H](C)NC(=O)[C@@H]1CSSC[C@H](NC(=O)[C@H](CCCNC(=N)N)NC(=O)CC[C@H](NC(=O)CCCCCCCCCCCCCCCCCCC(=O)O)C(=O)O)C(=O)N[C@@H](CC(N)=O)C(=O)N[C@@H]([C@@H](C)O)C(=O)N[C@@H](C)C(=O)N[C@@H]([C@@H](C)O)C(=O)N1)[C@@H](C)O [Compound 74, [19CD]-isoGlu-RC()NTATC()ATQRLAEFLHRSSSSF-Gly(Me)-A-Ile(Me)-LSSTDVGSETP-NH2] ({C20 diacid-γGlu}-RCNTATCATQRLAEFLHRSSSSF[Sar]A[NMeI]LSSTDVGSETP-NH2; disulfide 2-7) | 0.097 | SS (SS indicates solubility ≥ 1mg/ml) | SS (SS indicates solubility ≥ 1mg/ml) | SS (SS indicates solubility ≥ 1mg/ml) | SS (SS indicates solubility ≥ 1mg/ml) | SS (SS indicates solubility ≥ 1mg/ml) | SS (SS indicates solubility ≥ 1mg/ml) | SS (SS indicates solubility ≥ 1mg/ml) |  |
| CC[C@H](C)[C@@H](C(=O)N[C@@H](CC(C)C)C(=O)N[C@@H](CO)C(=O)N[C@@H](CO)C(=O)N[C@H](C(=O)N[C@@H](CC(N)=O)C(=O)N[C@H](C(=O)NCC(=O)N[C@@H](CO)C(=O)N[C@@H](CC(N)=O)C(=O)N[C@H](C(=O)N1CCC[C@H]1C(N)=O)[C@@H](C)O)C(C)C)[C@@H](C)O)N(C)C(=O)[C@H](C)NC(=O)CN(C)C(=O)[C@H](Cc1ccccc1)NC(=O)[C@H](CC(N)=O)NC(=O)[C@H](CC(N)=O)NC(=O)[C@H](CO)NC(=O)[C@H](CO)NC(=O)[C@H](CCCNC(=N)N)NC(=O)[C@H](Cc1c[nH]cn1)NC(=O)[C@H](CC(C)C)NC(=O)[C@H](Cc1ccccc1)NC(=O)[C@H](CCC(=O)O)NC(=O)[C@H](C)NC(=O)[C@H](CC(C)C)NC(=O)[C@H](CCCNC(=N)N)NC(=O)[C@H](CCC(N)=O)NC(=O)[C@@H](NC(=O)[C@H](C)NC(=O)[C@@H]1CSSC[C@H](NC(=O)[C@H](CCCCN)NC(=O)[C@H](Cc2c[nH]cn2)NC(=O)CC[C@H](NC(=O)CCCCCCCCCCCCCCCCCCC(=O)O)C(=O)O)C(=O)N[C@@H](CC(N)=O)C(=O)N[C@@H]([C@@H](C)O)C(=O)N[C@@H](C)C(=O)N[C@@H]([C@@H](C)O)C(=O)N1)[C@@H](C)O [Compound 88, [19CD]-isoGlu-HKC()NTATC()ATQRLAEFLHRSSNNF-Gly(Me)-A-Ile(Me)-LSSTNVGSNTP-NH2] ({C20 diacid-γGlu}-HKCNTATCATQRLAEFLHRSSNNF[Sar]A[NMeI]LSSTNVGSNTP-NH2; disulfide 3-8) |  | SS (SS indicates solubility ≥ 1mg/ml) | SS (SS indicates solubility ≥ 1mg/ml) | SS (SS indicates solubility ≥ 1mg/ml) | SS (SS indicates solubility ≥ 1mg/ml) | SS (SS indicates solubility ≥ 1mg/ml) | SS (SS indicates solubility ≥ 1mg/ml) | SS (SS indicates solubility ≥ 1mg/ml) | 0.069 |

Source: patent EP3046573B1, “AMYLIN ANALOGUES” (Zealand Pharma A/S, priority 2013, dated 2015)
